Where a name gives a salt, the structure may show the parent alone.
System: GT-1a pRLuc H771b 75 S/I subgenomic replicon cell line
Assay: HCV GT-1a replicon luciferase reporter assay
Type: cell-based
Conditions: Hepatitis C virus, GT1A, 72 h, read-out: GT-1a (IC50) (nM)
From the text: Determination of compounds HCV GT1b inhibitory replicon activity using the replicon luciferase reporter assay
The 2209-23 cell line was developed at Roche by stable transfection of the hepatoma cell line Huh-7 with a GT-1b Con1 subgenomic bicistronic replicon as previously described. Subgenomic replicon cell line was established in cured Huh7 cells, obtained from R. Bartenschlager (J. Virol. 2003 March; 77 (5):3007-19) The GT-1a H77 subgenomic replicon vector pRLuc H771b 75 S/I, was created by replacing the non structural region of the GT-1b Con1 subgenomic replicon by the one of the H77 strain, except for the first 75 amino acids of the NS3 protein that are from GT-1b Con1 strain. (J. Virol. 2001 77:5352-59) The GT-1a pRLuc H771b 75 S/I subgenomic replicon cell line was established in cured Huh7 cells, obtained from R. Bartenschlager. (J. Virol. 2003 March; 77 (5):3007-19)
All the subgenomic replicon cell lines were cultured in Dulbecco's Modified Eagle Medium (DMEM-Glutamax™-I; Invitrogen Cat #10569-010). The medium was supplemented with 10% Fetal Bovine Serum (Invitrogen Cat #10082-147), 1% penicillin/streptomycin (Mediatech Cat #30-002-CI) and 500 μg/ml of G418 (Mediatech Cat #30-234-CI). Cells were maintained at 37° C. in a humidified 5% CO2 atmosphere.
2209-23 cells were plated at a cell density of 5000 cells per well in 96 well plates (Becton Dickinson, Cat #35 3296). Cells were plated in 90 μl of Dulbecco's Modified Eagle Medium (DMEM-Glutamax™-I), (Invitrogen Cat #10569-010) medium was supplemented with 5% Fetal Bovine Serum (Invitrogen Cat #10082-147), 1% penicillin/streptomycin (Mediatech Cat #30-002-CI). The pRluc H771b 75 S/I cells were plated in 96-well plate at 3000 cells/well in DMEM-Glutamax™-I containing 5% FBS and 1% penicillin/streptomycin in 90 μl final volume. Cells were allowed to equilibrate for 24 hours at 37° C. and 5% CO2 at which time compounds were added. Compounds (or medium as a control) were added 24 hours post-plating in 3 fold dilutions at a final DMSO concentration of 1% in 10 ul volume. Renilla luciferase reporter signal was read 72 hours after addition of compounds using the Renilla Luciferase Assay System (Promega, cat #E2820). EC50 values were defined as the compound concentration at which a 50% reduction in the levels of renilla luciferase reporter was observed as compared to control samples in the absence of compound and was determined by non-linear fitting of compound dose-response data. The EC50 was approximated if maximum percentage inhibition was less than 90% and more than 70%.

COC(=O)N[C@H]1CCc2cccc3c2N(C1=O)[C@H](c1ncc(-c2ccc(-c4ccc(-c5cnc([C@@H]6CCCN6C(=O)[C@@H](NC(=O)OC)C(C)C)[nH]5)cc4)cc2F)[nH]1)C3 [Compound I-36, {(2S,5S)-2-[5-(3-Fluoro-4′-{2-[(S)-1-((S)-2-methoxycarbonylamino-3-methyl-butyryl)-pyrrolidin-2-yl]-1H-imidazol-4-yl}-biphenyl-4-yl)-1H-imidazol-2-yl]-4-oxo-1,2,4,5,6,7-hexahydro-azepino[3,2,1-hi]indol-5-yl}-carbamic acid methyl ester]
IC50: 13.8 nM

COC[C@H](NC(=O)OC)C(=O)N1CCC[C@H]1c1ncc(-c2ccc(-c3ccc(-c4cnc([C@@H]5Cc6cccc7c6N5C(=O)[C@@H](NC(=O)OC)CC7)[nH]4)cc3)cc2)[nH]1 [Compound I-43]
IC50: 5.64 nM

COC(=O)N[C@H]1CCc2cccc3c2N(C1=O)[C@H](c1ncc(-c2ccc(-c4ccc5cc(-c6cnc([C@@H]7CCCN7C(=O)[C@@H](NC(=O)OC)C(C)C)[nH]6)ccc5c4)nc2)[nH]1)C3 [Compound I-23, ((2S,5S)-2-{4-[6-(6-{2-[(S)-1-((S)-2-Methoxycarbonylamino-3-methyl-butyryl)pyrrolidin-2-yl]-3H-imidazol-4-yl}-naphthalen-2-yl)-pyridin-3-yl]-1Himidazol-2-yl}-4-oxo-1,2,4,5,6,7-hexahydro-azepino[3,2,1-hi]indol-5-yl)-carbamic acid methyl ester di-trifluoroacetic acid salt]
IC50: 0.767 nM

COC(=O)NC(C(=O)N1CCOC[C@H]1c1ncc(-c2ccc(-c3ccc(-c4cnc([C@@H]5Cc6cccc7c6N5C(=O)[C@@H](NC(=O)OC)CC7)[nH]4)cc3)cc2)[nH]1)c1ccccc1 (stereo in doubt) [Compound I-63, {(2S,5S)-2-[5-(4′-{2-[(R)-4-((S)-2-Methoxycarbonylamino-2-phenyl-acetyl)-morpholin-3-yl]-3H-imidazol-4-yl}-biphenyl-4-yl)-1H-imidazol-2-yl]-4-oxo-1,2,4,5,6,7-hexahydro-azepino[3,2,1-hi]indol-5-yl}-carbamic acid methyl ester]
IC50: 7.3 nM

COC(=O)N[C@H]1CCc2cccc3c2N(C1=O)[C@H](c1ncc(-c2ccc(-c4ccc(-c5cnc([C@@H]6C[C@H](O)CN6C(=O)[C@@H](NC(=O)OC)C(C)C)[nH]5)cc4)cc2)[nH]1)C3 [Compound I-33, {(2S,5S)-2-[5-(4′-{2-[(2S,4S)-4-Hydroxy-1-((S)-2-methoxycarbonylamino-3-methyl-butyryl)-pyrrolidin-2-yl]-3H-imidazol-4-yl}-biphenyl-4-yl)-1H-imidazol-2-yl]-4-oxo-1,2,4,5,6,7-hexahydro-azepino[3,2,1-hi]indol-5-yl}-carbamic acid methyl ester]
IC50: 46.1 nM

COC(=O)N[C@H]1CCc2cccc3c2N(C1=O)[C@H](c1ncc(-c2ccc(-c4ccc(-c5cnc([C@@H]6CCCN6C(=O)[C@@H](NC(=O)OC)C6CC6)[nH]5)cc4)cc2)[nH]1)C3 [Compound I-44]
IC50: 11.4 nM

COC(=O)N[C@H]1CCc2cccc3c2N(C1=O)[C@H](c1ncc(-c2ccc(-c4ncc(-c5cnc([C@@H]6CC(F)(F)CN6C(=O)[C@@H](NC(=O)OC)C(C)C)[nH]5)cn4)cc2)[nH]1)C3 [Compound I-57, ((2S,5S)-2-{4-[4-(5-{2-[(S)-4,4-Difluoro-1-(2-methoxycarbonylamino-3-methyl-butyryl)-pyrrolidin-2-yl]-3H-imidazol-4-yl}-pyrimidin-2-yl)-phenyl]-1H-imidazol-2-yl}-4-oxo-1,2,4,5,6,7-hexahydro-azepino[3,2,1-hi]indol-5-yl)-carbamic acid methyl ester]
IC50: 17.1 nM

COC(=O)N[C@H]1CCc2cccc3c2N(C1=O)[C@H](c1ncc(-c2ccc(-c4ccc(-c5nnc([C@@H]6CCCN6C(=O)[C@@H](NC(=O)OC)C(C)C)[nH]5)cc4)cc2)[nH]1)C3 [Compound I-61, {(2S,5S)-2-[5-(4′-{5-[(S)-1-((S)-2-Methoxycarbonylamino-3-methyl-butyryl)-pyrrolidin-2-yl]-4H-[1,2,4]triazol-3-yl}-biphenyl-4-yl)-1H-imidazol-2-yl]-4-oxo-1,2,4,5,6,7-hexahydro-azepino[3,2,1-hi]indol-5-yl}-carbamic acid methyl ester]
IC50: 67.2 nM

COC(=O)NC(C(=O)N1CCC[C@H]1c1ncc(-c2ccc(-c3ccc(-c4cnc([C@@H]5Cc6cccc7c6N5C(=O)[C@@H](NC(=O)OC)CC7)[nH]4)cc3)cc2)[nH]1)C1CCOCC1 (stereo partly drawn) [Compound I-48]
IC50: 2.83 nM

COC(=O)N[C@H]1CCc2cccc3c2N(C1=O)[C@H](c1ncc(-c2ccc(-c4ccc(-c5cnc([C@@H]6CC7(CN6C(=O)[C@@H](NC(=O)OC)C(C)C)OCCO7)[nH]5)cc4)cc2)[nH]1)C3 [Compound I-8, {(2S,5S)-2-[5-(4′-{2-[(S)-7-((S)-2-Methoxycarbonylamino-3-methyl-butyryl)-1,4-dioxa-7-aza-spiro[4.4]non-8-yl]-3H-imidazol-4-yl}-biphenyl-4-yl)-1H-imidazol-2-yl]-4-oxo-1,2,4,5,6,7-hexahydro-azepino[3,2,1-hi]indol-5-yl}-carbamic acid methyl Ester]
IC50: 2.54 nM

COC(=O)N[C@H]1CCc2cccc3c2N(C1=O)[C@H](c1ncc(-c2ccc(-c4ccc(-c5cnc([C@@H]6C[C@@H](C#N)CN6C(=O)[C@@H](NC(=O)OC)C(C)C)[nH]5)cc4)cc2)[nH]1)C3 [Compound I-39, {(2S,5S)-2-[5-(4′-{2-[(2S,4R)-4-Cyano-1-((S)-2-methoxycarbonylamino-3-methyl-butyryl)-pyrrolidin-2-yl]-3H-imidazol-4-yl}-biphenyl-4-yl)-1H-imidazol-2-yl]-4-oxo-1,2,4,5,6,7-hexahydro-azepino[3,2,1-hi]indol-5-yl}-carbamic acid methyl ester]
IC50: 5.34 nM

COC(=O)N[C@H]1CCc2cccc3c2N(C1=O)[C@H](c1ncc(-c2ccc(-c4cnc5cc(-c6cnc([C@@H]7CCCN7C(=O)[C@@H](NC(=O)OC)C(C)(C)C)[nH]6)ccc5n4)cc2)[nH]1)C3 [Compound I-54, ((2S,5S)-2-{5-[4-(6-{2-[(S)-1-((S)-2-Methoxycarbonylamino-3,3-dimethyl-butyryl)-pyrrolidin-2-yl]-3H-imidazol-4-yl}-quinoxalin-2-yl)-phenyl]-1H-imidazol-2-yl}-4-oxo-1,2,4,5,6,7-hexahydro-azepino[3,2,1-hi]indol-5-yl)-carbamic acid methyl ester]
IC50: 0.949 nM

COC(=O)N[C@H]1CCc2cccc3c2N(C1=O)[C@H](c1ncc(-c2ccc4cc(-c5ccc(-c6cnc([C@@H]7CCCN7C(=O)[C@@H](NC(=O)OC)C(C)C)[nH]6)cn5)ccc4c2)[nH]1)C3 [Compound I-24, ((2S,5S)-2-{4-[6-(5-{2-[(S)-1-((S)-2-Methoxycarbonylamino-3-methyl-butyryl)-pyrrolidin-2-yl]-3H-imidazol-4-yl}-pyridin-2-yl)-naphthalen-2-yl]-1H-imidazol-2-yl}-4-oxo-1,2,4,5,6,7-hexahydro-azepino[3,2,1-hi]indol-5-yl)-carbamic acid methyl ester di-trifluoroacetic acid salt]
IC50: 1.16 nM

COC(=O)N[C@H]1CCc2cccc3c2N(C1=O)[C@H](c1ncc(-c2ccc(-c4ccc(-c5cnc([C@@H]6C[C@H](F)CN6C(=O)[C@@H](NC(=O)OC)C(C)C)[nH]5)cc4)cc2)[nH]1)C3 [Compound I-1, {(2S,5S)-2-[5-(4′-{2-[(2S,4S)-4-Fluoro-1-((S)-2-methoxycarbonylamino-3-methyl-butyryl)-pyrrolidin-2-yl]-3H-imidazol-4-yl}biphenyl-4-yl)-1H-imidazol-2-yl]-4-oxo-1,2,4,5,6,7-hexahydro-azepino[3,2,1-hi]indol-5-yl}-carbamic acid methyl ester]
IC50: 6.33 nM

COC(=O)N[C@H]1CCc2cccc3c2N(C1=O)[C@H](c1ncc(-c2ccc(-c4ccc(-c5cnc([C@@H]6C[C@H](C#N)CN6C(=O)[C@@H](NC(=O)OC)C(C)C)[nH]5)cc4)cc2)[nH]1)C3 [Compound I-40, {(2S,5S)-2-[5-(4′-{2-[(2S,4S)-4-Cyano-1-((S)-2-methoxycarbonylamino-3-methyl-butyryl)-pyrrolidin-2-yl]-3H-imidazol-4-yl}-biphenyl-4-yl)-1H-imidazol-2-yl]-4-oxo-1,2,4,5,6,7-hexahydro-azepino[3,2,1-hi]indol-5-yl}-carbamic acid methyl ester]
IC50: 7.85 nM
